We go through 1 molecule from patent publication US6037158A, “Alcohol dehydrogenase and its use for the enzymatic production of chiral hydroxy compounds” (priority 1996, dated 2000).

In series [1] the target is T1, alcohol dehydrogenase from L. brevis (Levilactobacillus brevis, UniProt Q84EX5).
T1 sequence (Q84EX5 2-252): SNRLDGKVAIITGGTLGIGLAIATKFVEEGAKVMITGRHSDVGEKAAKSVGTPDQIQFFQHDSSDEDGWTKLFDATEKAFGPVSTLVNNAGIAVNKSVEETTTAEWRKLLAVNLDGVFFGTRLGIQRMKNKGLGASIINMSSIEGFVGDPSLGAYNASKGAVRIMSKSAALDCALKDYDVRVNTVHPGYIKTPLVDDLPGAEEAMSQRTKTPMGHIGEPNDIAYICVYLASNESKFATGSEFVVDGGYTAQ
Description: biochemical. The following applies: 10 mM keto compound. It is filed as biochemical. The procedure: A series of other ketones and keto esters were used instead of acetophenone and it was tested whether these can be reduced by enzyme catalysis.
The following test mixture was used for this:
970 μl triethanolamine buffer (50 mM; pH 7.0, containing 10 mM keto compound)
20 μl NADPH (0.19 mM in the test)
Some of the ketones were also tested at a concentration of 1 mM in order to verify a possible substrate inhibition at 10 mM.

Series [2] has as its target T2, alcohol dehydrogenase from Lactobacillus brevis (Levilactobacillus brevis, UniProt Q84EX5).
T2 construct: same enzyme regenerates NADPH with isopropanol
T2 sequence (Q84EX5 2-252): T1 sequence (Q84EX5 2-252)
In kind it is biochemical. The following applies: l. brevis alcohol dehydrogenase, 24 h, 5000 µM, pH 7. The procedure: Purified enzyme (example 2C) and the necessary coenzyme (NADP) were used for the enzyme-catalysed synthesis of (R)-phenylethanol from acetophenone. The oxidized co-enzyme was continuously regenerated by isopropanol which was simultaneously present so that the reaction only required catalytic amounts of coenzyme. In detail the mixture contained (the final concentrations of the components in the test are listed in brackets): 20 μl NADP (0.05 mM), 7.7 μl isopropanol (0.1 M), 0.6 μl acetophenone (5 mM), 921.7 μl triethanolamine buffer (50 mM; pH 7.0, containing 1 mM MgCl2) and 50 μl alcohol dehydrogenase from Lactobacillus brevis (4.5 units). This mixture with a total volume of 1 ml was incubated for 24 hours at 30° C., then a sample was analysed by means of gas chromatography. For this 100 μl was removed, shaken out with 100 μl chloroform, the phases were separated by centrifugation and an aliquot was taken from the lower phase (chloroform) for the GC.
The separation conditions for the separation of (R)- and (S)-phenylethanol on a gas chromatograph: stationary phase: Lipodex E, CD column (Macherey and Nagel, Duren), mobile phase: helium, injection volumes: 1 μl detection: FID, temperature: 110° C. Under these conditions the substrate acetophenone is eluted at 10.5 min, (S)-phenylethanol at 13.8 min and (R)-phenylethanol at 14.2 min. […]

Series [3] has as its system whole cells of Lactobacillus brevis. Description: Reduction of ketones with whole cells. Conditions: after 2 h incubation at 30° C., 10 mM acetophenone, 50 mg cells, 0.1 M glucose. In kind it is cell-based. The method, then: In addition ketones can be reduced to chiral alcohols using whole cells of L. brevis. […] The coenzyme regeneration can be achieved by isopropanol or by metabolizable substrates such as glucose.
Test mixture: 50 mg cells of L. brevis (wetweight after centrifugation) is suspended in 860 μl triethanolamine buffer (50 mM; pH 7.50; addition of 1 MM MgCl^2+) which contains 0.1 M glucose and 10 mM acetophenone. Samples are analysed by means of gas chromatography. […] Since a quantification by means of GC separation on a chiral stationary phase had been carried out, it was possible to show at the same time that the phenylethanol that forms is of high optical purity but no quantifiable (S)-alcohol could be detected. The optical purity is considerably >95% for (R)-alcohol.

The structures appear in SMILES notation.

For the molecule `CC(=O)c1ccccc1` [acetophenone], in series [1] (0.19 mM NADPH, pH 7.0, purified enzyme diluted 1:10), the Activity turned out to be 3.26 U/ml. The activity at 10000 µM in series [1] (relative to acetophenone = 100, read-out: Relative act.) came out at 100%. Further, the substrate converted result in series [2] is “more than 95%”. For the same molecule, in series [3], the “substrate remaining (GC)” value is “no longer detectable”.
